Data on one compound can be found in paper PMC7734798 (ACS Medicinal Chemistry Letters, 2020).

Data set [1] relates to primary rat cerebellar granule neurons (CGNs). The data set is described as follows: Neuroprotection assay: glutamate/glycine excitotoxicity in differentiated CGNs (MTT). It is filed as cell-based. Particulars: CGNs 8 DIV. The method, then: Several lines of evidence point to MS as not only an inflammatory but also a neurodegenerative disease. Thus, neuroprotective agents may hold promise for MS therapy.[32] […] Thus, to test the neuroprotective capability of 1 and 2, we used a glutamate excitotoxicity model of primary cultural neurons. At day 8 in vitro (8 DIV), CGNs were pretreated with the compounds for 6 h, before adding 100 μM glutamate/10 μM glycine insult for further 24 h. […] Furthermore, while reference compounds (alone and in combination) increase glutamate/glycine excitotoxicity at higher doses, 1 was not toxic even at the highest concentration tested (25 μM). […]
committee (Protocol n° 17-72-1212) and performed according to Italian and European Community laws on the use of animals for experimental purposes. […]
heat-inactivated FBS (Aurogene), 2 mM glutamine, 100 μM gentamicin sulphate and 25 mM KCl (all from Sigma-Aldrich). […] The viability of CGNs exposed to increasing concentrations of the studied compounds (0, 5, 10 and 25 μM) for 24 h was evaluated through the MTT assay. […] Following a 20 min incubation at 37 °C in the dark, the MTT precipitate was dissolved in 0.1 M Tris-HCl pH 7.5 buffer containing 5% Triton X-100 (all from Sigma-Aldrich) and absorbance was read at 570 nm in a multiplate spectophotometric reader (Bio-Rad). […] After 24 hours, neuronal survival has been evaluated through MTT assay. […]

A further data set deals with CNPase. The data set can be described thus: Oli-Neu differentiation marker CNPase expression (Western blot). It is filed as cell-based, mouse. Particulars: Oli-Neu cells, 5 μM, 72 h. The source says:
OPC proliferation and migration to the CNS injury site as well as their differentiation are critical steps toward remyelination in MS. HDAC activity plays a crucial role in OPC proliferation/differentiation; therefore, HDAC modulation is widely considered a promising therapeutic target for MS.[30] […] Therefore, we tested the effect of our compounds on OPC proliferation and differentiation, through cell counting, measure of filaments, and analysis of proliferation/differentiation markers (Figure 7). […]
After 24 hours, the viability was evaluated through the MTT assay. […]
48 hours, for cell counting and measure of filaments, 5 random images for each condition were acquired with an Eclipse TS100 (Nikon) microscope using a 10X objective. Cells number and filament length were measured with Fiji ImageJ2 software. After 48 hours for proliferation and 72 hours of treatment for differentiation analysis, cells were lysed in ice-cold lysis buffer (50 mM Tris-HCl pH 7.4, 1% SDS, 0.05% protease inhibitor cocktail; all from Sigma-Aldrich) and protein content was determined by using the Lowry method. […]

Regarding `CC/C=C\C/C=C\C/C=C\CCCCCCCC(=O)NCCNC(=O)C(CCC)CCC` [compound 1], the “toxicity under glutamate/glycine excitotoxicity at higher doses” value in data set [1] (100 μM glutamate/10 μM glycine, highest concentration tested 25 μM) was “not toxic”. Also, the “neuroprotection against glutamatergic excitotoxicity (MTT)” value in data set [1] (6 h pretreatment + 24 h with 100 μM glutamate/10 μM glycine, especially at 5 and 10 μM) is given as “more neuroprotective”. Moreover, in the data set with CNPase, the “expression of CNPase, marker of differentiation” value is listed as “significant increase”.
